Source: patent US4749710A, “Immunosuppressive agents” (priority 1985, dated 1988)
Like-named read-outs stand apart in the source and are kept apart here.

Columns and labels:
[1] = test system: murine cytotoxic T-lymphocyte responses; assay: cells; format: cell-based; conditions: for CTL activity (% specific ^51 Cr release): 90:1 effector to target
Source text: Immunosuppressive Activity of Vitamin D compounds on cytotoxic T lymphocyte Responses-General Test Description
Cytotoxic thymus-derived lymphocytes (CTL) constitute an important aspect of immune function and, as a result, play a key role in the rejection of grafted cells, tissues and organs. It is, therefore, essential to suppress CTL generation in a clinical situation in which CTL function is antithetical to the desired outcome as, for example, in transplantation. Cytotoxic T-lymphocytes have been studied for several years by many investigators and methods to evaluate CTL responses in vitro are well established.
As described below, CTL responses as affected by Vitamin D derivatives, were studied in vitro using cells from lab animals and human volunteers. Cytotoxic T-lymphocytes were generated from responder lymphoid cells in tissue culture medium during an incubation period of 6 days by exposure to foreign stimulator cells, i.e. from a genetically disparate source. A portion of the resultant effector cells were CTL capable of killing fresh cells related to the stimulator cells employed in the 6 day culture. To detect killing of cells by CTL, fresh target cells were incubated in excess ^51 chromium (as sodium chromate) until they were extensively labelled. Since target cells will retain the internalized radioisotope as long as they are viable but release the label when they are killed, CTL activity was assessed by quantitating the chromium released from target cells after a 4 or 18 hour incubation with CTL. Immunosuppression produced by Vitamin D derivatives was gauged as the ability to inhibit CTL responses during the initial incubation period relative to control cultures to which no Vitamin D derivative was added.
Female BALB/c By and C57BL/6 mice were obtained from Jackson Laboratories and were used between 8 and 10 weeks of age. Mice were given food and water ad libitum and were kept in a 12 hour light and 12 hour dark cycle.
For murine cultures, minimal essential medium with Hank's salts was supplemented to 1 millimolar with sodium pyruvate, to 0.1 millimolar with nonessential amino acids, to 2 millimolar with 1-glutamine, to 10% (v/v) with heat-inactivated fetal bovine serum, to 50 micrograms per ml with gentamicin, and to 1000 milligrams per liter with sodium bicarbonate and was used as tissue culture medium.
Stock solutions of Vitamin D derivatives were made in argon-saturated ethanol at a final concentration of 1×10^-2 molar, were covered with argon before sealing and were stored at -20° C. in the dark. Reduced lighting conditions were always employed when working with compounds. Compounds were diluted in tissue culture medium to 1×10^-4 molar and all subsequent dilutions were done in tissue culture medium containing 1% v/v ethanol. The final dilution into culture vessels was 1:10 thus keeping the vehicle concentration constant at 0.1% while varying the concentration of compound as tabulated in the results. For purposes of control, mixed leukocyte cultures were incubated in medium only (medium control) or in medium containing a final concentration of 0.1% ethanol (vehicle control).
Murine cytotoxic T-lymphocytes were generated in mixed leukocyte cultures by known methods. Specifically, single cell suspensions were prepared from spleens by gentle disruption in balanced salt solution (Hanks' balanced salt solution supplemented to 10%, v/v, with fetal bovine serum). After sedimentation on ice to remove particulate debris, cell suspensions were centrifuged at 400xg and were resuspended in fresh balanced salt solution. Cells to be used as stimulator cells were precluded from proliferating or generating cytotoxic T-lymphocytes by exposure to 1000 rads of gamma irradiation using a ^137 cesium source. […]

[2] = test system: human cytotoxic T-lymphocyte responses; assay: Inhibition of human CTL responses (mixed leukocyte-tumor cultures, HT-144 melanoma, ^51 Cr release); format: cell-based; conditions: for inhibition at 1 µM / inhibition at 0.1 µM: Homo sapiens, T-lymphocyte, read-out: Inhibition of CTL activity (%)
Method: Human cells for the tests described below were taken from four donors designated I, II, III, and IV in the tables below.
Stock solutions of Vitamin D derivatives were prepared as they were prepared above in the murine tests.
Human cytotoxic T-lymphocytes were generated in mixed leukocyte-tumor cultures by known methods. Specifically, blood from normal volunteer donors was drawn into heparinized syringes, diluted 1:1 with calcium-magnesium free Hanks' balanced salt solution (Ca-Mg free HBSS), and layered over lymphocyte separation medium (Litton Bionetics, Kensington, MD). After centrifugation at 500xg for 20-30 min at room temperature, peripheral blood mononuclear cells were harvested from the interface. The peripheral blood mononuclear leukocytes were centrifuged and resuspended in Ca-Mg free HBSS and were subsequently separated from platelets by centrifugation at 500xg through a solution of 20% sucrose and 1% human AB serum in Ca-Mg free HBSS. The cells were washed once and finally resuspended in tissue culture medium. […] Cells to be used as stimulator cells in mixed leukocyte-tumor cultures were irradiated with 10,000 rads of gamma irradiation to preclude proliferation in culture. Mixed leukocyte-tumor cell cultures were established in 16 mm tissue culture wells at a final volume of 1.5 ml per well containing 2×10^6 peripheral blood mononuclear leukocytes and 5×10^4 irradiation-inactivated stimulator cells. In order to prevent the generation of nonspecific cytotoxic cells in these cultures, hydrocortisone sodium succinate was added to each culture at a final concentration of 1×10^-5 M. Mixed leukocyte-tumor cultures were incubated for 6 days in a humidified atmosphere of 5% CO2 in air.
Labelled target cells were washed free of unbound isotope by 3 serial washes in tissue culture medium and were finally resuspended at a concentration of 5×10^4 cells per ml.
Assays of human cytotoxic T-lymphocytes were done by known methods. Specifically, one-tenth ml aliquots of ^51 Cr-labelled target cell suspension were added to "half area" microtest plates and were incubated at 37° C. for 18 hours in a humidified atmosphere of 5% CO2 in air to permit the cells to adhere and spread on the floor of each well. Culture medium was then aspirated from each well and was replaced with 0.1 ml of tissue culture medium containing cells harvested from mixed leukocyte-tumor cultures which had been processed as described for murine mixed leukocute cultures, above. Control wells for measurement of spontaneous ^51 Cr release received medium without effector cells and wells for measurement of maximal releasable ^51 Cr received 0.1 ml of 2% sodium dodecyl sulfate in distilled water. After overnight incubation at 37° in a humidified atmosphere of 5% CO2 in air, 0.05 ml of cell-free supernatant was withdrawn from each well and the amount of released ^51 Cr was quantitated using a gamma spectrometer. The percentage of specific ^51 Cr release (CTL activity) and the percent inhibition of CTL activity were calculated with the same formulas used above for the murine CTL assay.
Tests conducted on human cytotoxic T-lymphocyte responses are reported as the mean±standard error of the mean from triplicate ^51 Cr release determinations on pooled cells from duplicate control or test cultures.

[3] = Test 1 (hexafluoro compounds), donor I, 1 × 10^-6 molar, 0.1% ethanol, effector to target 8:1
[4] = Test 1 (hexafluoro compounds), donor I, 1 × 10^-7 molar, 0.1% ethanol, effector to target 8:1

SMILES	inhibition at 10 µM ([1]; Mus musculus, T-lymphocyte, Table I, 1 × 10^-5 molar, vs vehicle control, read-out: Inhibition of CTL activity (%))	inhibition at 1 µM ([1]; Mus musculus, T-lymphocyte, Table I, 1 × 10^-6 molar, vs vehicle control, read-out: Inhibition of CTL activity (%))	inhibition at 0.1 µM ([1]; Mus musculus, T-lymphocyte, Table I, 1 × 10^-7 molar, vs vehicle control, read-out: Inhibition of CTL activity (%))	inhibition at 0.01 µM ([1]; Mus musculus, T-lymphocyte, Table I, 1 × 10^-8 molar, vs vehicle control, read-out: Inhibition of CTL activity (%))	inhibition at 0.001 µM ([1]; Mus musculus, T-lymphocyte, Table I, 1 × 10^-9 molar, vs vehicle control, read-out: Inhibition of CTL activity (%))	inhibition at 0.0001 µM ([1]; Mus musculus, T-lymphocyte, Table I, 1 × 10^-10 molar, vs vehicle control, read-out: Inhibition of CTL activity (%))	CTL activity (% specific ^51 Cr release) ([1]; Table I, 1 × 10^-5 molar)	CTL activity (% specific ^51 Cr release) ([1]; Table I, 1 × 10^-6 molar)	CTL activity (% specific ^51 Cr release) ([1]; Table I, 1 × 10^-7 molar)	CTL activity (% specific ^51 Cr release) ([1]; Table I, 1 × 10^-8 molar)	CTL activity (% specific ^51 Cr release) ([1]; Table I, 1 × 10^-9 molar)	CTL activity (% specific ^51 Cr release) ([1]; Table I, 1 × 10^-10 molar)	suppression of murine cytotoxic T-lymphocyte responses (in words) ([1]; in vitro)	inhibition at 1 µM [2, 3]	inhibition at 0.1 µM [2, 4]	CTL activity (% specific ^51 Cr release) [2, 3]	CTL activity (% specific ^51 Cr release) [2, 4]	inhibition at 0.1 µM [2]	inhibition at 1 µM [2]
C=C1/C(=C\C=C2/CCC[C@]3(C)[C@@H]([C@H](C)CC4CC(C)(O)C(=O)O4)CC[C@@H]23)C[C@@H](O)C[C@@H]1O (stereo partly drawn) [1α,25-(OH)2 --D3-(26,23)-lactone, 1α,25-Dihydroxycholecalciferol-26,23-lactone]	80%	63%	37%	9%	3%	7%	11 % specific ^51 Cr release	20 % specific ^51 Cr release	34 % specific ^51 Cr release	49 % specific ^51 Cr release	52 % specific ^51 Cr release	50 % specific ^51 Cr release	suppress murine cytotoxic T-lymphocyte responses	–	–	–	–	–	–
C=C1/C(=C\C=C2/CCC[C@]3(C)[C@@H]([C@H](C)C=CCC(O)(C(F)(F)F)C(F)(F)F)CC[C@@H]23)C[C@@H](O)C[C@@H]1O [26,26,26,27,27,27-Hexafluoro-1α,25-dihydroxy-Δ^22-cholecalciferol]	–	–	–	–	–	–	–	–	–	–	–	–	–	80%	64%	13 ± 0.1 % specific ^51 Cr release	23 ± 2 % specific ^51 Cr release	–	–
C=C1/C(=C\C=C2/CCC[C@]3(C)[C@@H]([C@H](C)CCCC(O)(C(F)(F)F)C(F)(F)F)CC[C@@H]23)C[C@@H](O)C[C@@H]1O [26,26,26,27,27,27-hexafluoro-1α,25-dihydroxycholecalciferol]	–	–	–	–	–	–	–	–	–	–	–	–	–	–	–	15 ± 2 % specific ^51 Cr release	23 ± 3 % specific ^51 Cr release	64%	77%
